Laboratory results published in PubChem BioAssay AID256 (DTP/NCI, 2004).
Several values for one entry are separate records, joined by “and”; a condition that tells them apart may be missing. Identical values can stand only once. Toxic doses and inconclusive results are not listed. The calls were made as follows: active = survival T/C of 150% or more; inactive = T/C below 125% in these data.

Tested on: CD2F1 mice, L1210 leukemia ip, survival T/C
Assay: NCI In Vivo Anticancer Drug Screen. Data for tumor model L1210 Leukemia (intraperitoneal) in CD2F1 (CDF1) mice
Conditions: higher = longer survival
Outline: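 Mice carrying a transplanted tumor received test compound or vehicle alone. The value is the measurement in the treated group divided by that in the vehicle-treated control group.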

[1] = endpoint: mean survival time, dose: 100.0 mg/kg/injection, schedule: Q04DX003 (ip), vehicle: saline with Tween-80
[2] = endpoint: mean survival time, dose: 200.0 mg/kg/injection, schedule: Q04DX003 (ip), vehicle: saline with Tween-80
[3] = endpoint: mean survival time, dose: 400.0 mg/kg/injection, schedule: Q04DX003 (ip), vehicle: saline with Tween-80
[4] = endpoint: mean survival time, dose: 50.0 mg/kg/injection, schedule: Q01DX009 (ip), vehicle: saline with Tween-80
[5] = endpoint: mean survival time, dose: 100.0 mg/kg/injection, schedule: Q01DX009 (ip), vehicle: saline with Tween-80
[6] = endpoint: mean survival time, dose: 200.0 mg/kg/injection, schedule: Q01DX009 (ip), vehicle: saline with Tween-80
[7] = endpoint: mean survival time, dose: 50.0 mg/kg/injection, schedule: Q01DX009 (ip), vehicle: Klucel (hydroxypropylcellulose) (HPC)
[8] = endpoint: mean survival time, dose: 100.0 mg/kg/injection, schedule: Q01DX009 (ip), vehicle: Klucel (hydroxypropylcellulose) (HPC)
[9] = endpoint: mean survival time, dose: 400.0 mg/kg/injection, schedule: Q01DX009 (ip), vehicle: saline with Tween-80
[10] = endpoint: mean survival time, dose: 100.0 mg/kg/injection, schedule: Q01DX001 (ip), vehicle: saline
[11] = endpoint: mean survival time, dose: 200.0 mg/kg/injection, schedule: Q01DX001 (ip), vehicle: saline
[12] = endpoint: mean survival time, dose: 400.0 mg/kg/injection, schedule: Q01DX001 (ip), vehicle: saline

Measured: T/C

C[SeH]C.C[SeH]C.[Cl][Pt][Cl]
inactive: endpoint: mean survival time, dose: 0.94 mg/kg/injection, schedule: Q04DX003 (ip), vehicle: saline 100 % of control | endpoint: mean survival time, dose: 1.88 mg/kg/injection, schedule: Q04DX003 (ip), vehicle: saline 97 % of control | endpoint: mean survival time, dose: 3.75 mg/kg/injection, schedule: Q04DX003 (ip), vehicle: saline 97 % of control | endpoint: mean survival time, dose: 7.5 mg/kg/injection, schedule: Q04DX003 (ip), vehicle: saline 100 % of control | endpoint: mean survival time, dose: 15.0 mg/kg/injection, schedule: Q04DX003 (ip), vehicle: saline 100 % of control | endpoint: mean survival time, dose: 30.0 mg/kg/injection, schedule: Q04DX003 (ip), vehicle: saline 105 % of control

CCCNc1ncc(C(=O)O)c(=O)[nH]1
inactive: endpoint: mean survival time, dose: 1.56 mg/kg/injection, schedule: Q01DX009 (ip), vehicle: saline sonified 100 % of control | endpoint: mean survival time, dose: 3.1 mg/kg/injection, schedule: Q01DX009 (ip), vehicle: saline sonified 100 % of control | endpoint: mean survival time, dose: 6.25 mg/kg/injection, schedule: Q01DX009 (ip), vehicle: saline sonified 102 % of control

COc1cccc(C(=O)c2ccncc2)c1OC
inactive: endpoint: mean survival time, dose: 25.0 mg/kg/injection, schedule: Q01DX009 (ip), vehicle: water 91 % of control | endpoint: mean survival time, dose: 100.0 mg/kg/injection, schedule: Q01DX009 (ip), vehicle: water 95 % of control | endpoint: mean survival time, dose: 200.0 mg/kg/injection, schedule: Q01DX009 (ip), vehicle: water 90 % of control

CCOC(=O)CC1CC(CN)(C(=O)OCC)CO1 (centres undefined)
inactive: [1] 95 % of control | [2] 95 % of control | [3] 100 % of control

O=[N+]([O-])c1cccc(S(=O)(=O)N2CCCCC2)c1
inactive: endpoint: mean survival time, dose: 50.0 mg/kg/injection, schedule: Q04DX002 (ip), vehicle: saline with Tween-80 95 % of control | endpoint: mean survival time, dose: 100.0 mg/kg/injection, schedule: Q04DX002 (ip), vehicle: saline with Tween-80 87 % of control | endpoint: mean survival time, dose: 200.0 mg/kg/injection, schedule: Q04DX002 (ip), vehicle: saline with Tween-80 95 % of control | endpoint: mean survival time, dose: 400.0 mg/kg/injection, schedule: Q04DX002 (ip), vehicle: saline with Tween-80 91 % of control

CSC(=S)N/N=C/c1ccccn1
inactive: [4] 97 % of control | [5] 98 % of control | [1] 103 % of control | [2] 94 % of control

COC(=O)C12CCC1(Cl)CC2 (centres undefined)
inactive: endpoint: mean survival time, dose: 100.0 mg/kg/injection, schedule: Q04DX003 (ip), vehicle: saline 98 % of control | endpoint: mean survival time, dose: 200.0 mg/kg/injection, schedule: Q04DX003 (ip), vehicle: saline 93 % of control | endpoint: mean survival time, dose: 400.0 mg/kg/injection, schedule: Q04DX003 (ip), vehicle: saline 96 % of control

C=C(Br)CNC(=O)OCCCC
inactive: [4] 88 % of control

O=C(O)C1C2CCCCC2=C2CCCCC2C1C(=O)O (centres undefined)
inactive: [5] 98 % of control | [6] 104 % of control

C=CCN(CC=C)Cc1cccc(N(CCCl)CCCl)c1 (tested in a mixture with another compound)
inactive: [7] 109 % of control | [8] 114 % of control

CCNc1ncc2ccccc2c1-c1ccc(N2CCN(CCCl)CC2)cc1
inactive: endpoint: mean survival time, dose: 25.0 mg/kg/injection, schedule: Q04DX003 (ip), vehicle: saline + alcohol 111 % of control | endpoint: mean survival time, dose: 50.0 mg/kg/injection, schedule: Q04DX003 (ip), vehicle: saline + alcohol 102 % of control | endpoint: mean survival time, dose: 100.0 mg/kg/injection, schedule: Q04DX003 (ip), vehicle: saline + alcohol 102 % of control | endpoint: mean survival time, dose: 200.0 mg/kg/injection, schedule: Q04DX003 (ip), vehicle: saline + alcohol 111 % of control

COc1ccc(OC)c(NC(=O)Oc2ccc(F)cc2Cl)c1
inactive: [5] 101 % of control | [6] 104 % of control | [9] 102 % of control

O=C(O)CCCC(=O)c1ccccc1
inactive: [7] 91 % of control | [8] 91 % of control | endpoint: mean survival time, dose: 200.0 mg/kg/injection, schedule: Q01DX009 (ip), vehicle: Klucel (hydroxypropylcellulose) (HPC) 95 % of control

O=C(O/N=C(/CBr)c1ccccc1)c1ccccc1
inactive: endpoint: mean survival time, dose: 75.0 mg/kg/injection, schedule: Q01DX001 (ip), vehicle: other 101 % of control | endpoint: mean survival time, dose: 150.0 mg/kg/injection, schedule: Q01DX001 (ip), vehicle: other 97 % of control | endpoint: mean survival time, dose: 300.0 mg/kg/injection, schedule: Q01DX001 (ip), vehicle: other 103 % of control

C[n+]1ccncc1
inactive: [10] 102 % of control | [11] 102 % of control | [12] 104 % of control

CC(O)C1OC(n2cnc3c(=S)nc[nH]c32)C(O)C1O (centres undefined)
inactive: endpoint: median survival time, dose: 12.5 mg/kg/injection, schedule: Q01DX005 (ip), vehicle: distilled water + Tween-80 119 % of control and 107 % of control | endpoint: median survival time, dose: 25.0 mg/kg/injection, schedule: Q01DX005 (ip), vehicle: distilled water + Tween-80 116 % of control and 124 % of control

[Cu+2].[NH-]CC(=O)O.[NH-]CC(=O)O
inactive: endpoint: mean survival time, dose: 5.0 mg/kg/injection, schedule: Q01DX009 (ip), vehicle: saline 98 % of control | endpoint: mean survival time, dose: 10.0 mg/kg/injection, schedule: Q01DX009 (ip), vehicle: saline 104 % of control

O=C(O)CCCCc1ccccc1
inactive: [5] 93 % of control | [1] 106 % of control | [6] 98 % of control | [2] 92 % of control | [9] 102 % of control | [3] 106 % of control

O=C1CC(=O)NC(=O)N1
inactive: [5] 102 % of control | [6] 97 % of control | [9] 96 % of control

O=C1[O][Hg][c]2cc([N+](=O)[O-])cc3cccc1c23.O=C1[O][Hg][c]2cccc3cc([N+](=O)[O-])cc1c23
inactive: [10] 94 % of control | [11] 94 % of control | [12] 94 % of control

C=CCc1cc(OC)ccc1OC(C)=O
inactive: [1] 113 % of control | [2] 97 % of control | [3] 105 % of control

O=C(Nc1ccccc1)Nc1cc(Cl)ccc1O
inactive: endpoint: mean survival time, dose: 100.0 mg/kg/injection, schedule: Q01DX001 (ip), vehicle: saline with Tween-80 98 % of control | endpoint: mean survival time, dose: 200.0 mg/kg/injection, schedule: Q01DX001 (ip), vehicle: saline with Tween-80 98 % of control | endpoint: mean survival time, dose: 400.0 mg/kg/injection, schedule: Q01DX001 (ip), vehicle: saline with Tween-80 91 % of control

CN(C)CCNCc1cn(C2CC(O)C(CO)O2)c(=O)[nH]c1=O (centres undefined)
inactive: endpoint: mean survival time, dose: 12.5 mg/kg/injection, schedule: Q01DX005 (ip), vehicle: water 105 % of control | endpoint: mean survival time, dose: 25.0 mg/kg/injection, schedule: Q01DX005 (ip), vehicle: water 103 % of control | endpoint: mean survival time, dose: 50.0 mg/kg/injection, schedule: Q01DX005 (ip), vehicle: water 106 % of control | endpoint: mean survival time, dose: 100.0 mg/kg/injection, schedule: Q01DX005 (ip), vehicle: water 103 % of control | endpoint: mean survival time, dose: 200.0 mg/kg/injection, schedule: Q01DX005 (ip), vehicle: water 114 % of control
